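Method: 48-hour compound exposure of cells in 96-well plates, five concentrations, linear interpolation of endpoints. TGI marks complete inhibition of growth.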
Key:
Assay in all cases: NCI anticancer screen, dose series, 48 h
M14 melanoma = tested on: M14 melanoma
MALME-3M melanoma = tested on: MALME-3M melanoma
NCI/ADR-RES ovarian = tested on: NCI/ADR-RES ovarian
UO-31 renal = tested on: UO-31 renal
SK-MEL-5 melanoma = tested on: SK-MEL-5 melanoma
SK-OV-3 ovarian = tested on: SK-OV-3 ovarian
RXF 393 renal = tested on: RXF 393 renal
EKVX NSCLC = tested on: EKVX NSCLC
HCC-2998 colon = tested on: HCC-2998 colon
COLO 205 colon = tested on: COLO 205 colon
SNB-75 CNS = tested on: SNB-75 CNS
SW-620 colon = tested on: SW-620 colon
UACC-257 melanoma = tested on: UACC-257 melanoma
DU-145 prostate = tested on: DU-145 prostate
K-562 leukemia = tested on: K-562 leukemia
TK-10 renal = tested on: TK-10 renal
HL-60(TB) leukemia = tested on: HL-60(TB) leukemia
HOP-62 NSCLC = tested on: HOP-62 NSCLC
ACHN renal = tested on: ACHN renal
KM12 colon = tested on: KM12 colon
SF-539 CNS = tested on: SF-539 CNS
HCT-15 colon = tested on: HCT-15 colon
SN12C renal = tested on: SN12C renal
T-47D breast = tested on: T-47D breast
MOLT-4 leukemia = tested on: MOLT-4 leukemia
NCI-H460 lung = tested on: NCI-H460 lung
LOX IMVI melanoma = tested on: LOX IMVI melanoma
HS 578T breast = tested on: HS 578T breast
CAKI-1 renal = tested on: CAKI-1 renal
UACC-62 melanoma = tested on: UACC-62 melanoma
NCI-H23 lung = tested on: NCI-H23 lung
NCI-H522 lung = tested on: NCI-H522 lung
SF-268 CNS = tested on: SF-268 CNS
HT29 colon = tested on: HT29 colon
NCI-H226 lung = tested on: NCI-H226 lung
OVCAR-8 ovarian = tested on: OVCAR-8 ovarian
SK-MEL-2 melanoma = tested on: SK-MEL-2 melanoma
MCF7 breast = tested on: MCF7 breast
OVCAR-5 ovarian = tested on: OVCAR-5 ovarian
OVCAR-4 ovarian = tested on: OVCAR-4 ovarian
HCT-116 colon = tested on: HCT-116 colon
U251 CNS = tested on: U251 CNS
IGROV1 ovarian = tested on: IGROV1 ovarian
SNB-19 CNS = tested on: SNB-19 CNS
CCRF-CEM leukemia = tested on: CCRF-CEM leukemia
MDA-MB-231 breast = tested on: MDA-MB-231 breast
SR leukemia = tested on: SR leukemia
786-0 renal = tested on: 786-0 renal
SK-MEL-28 melanoma = tested on: SK-MEL-28 melanoma
SF-295 CNS = tested on: SF-295 CNS
MDA-N = tested on: MDA-N
BT-549 breast = tested on: BT-549 breast
A549 NSCLC = tested on: A549 NSCLC
PC-3 prostate = tested on: PC-3 prostate
MDA-MB-435 = tested on: MDA-MB-435
HOP-92 NSCLC = tested on: HOP-92 NSCLC
RPMI-8226 leukemia = tested on: RPMI-8226 leukemia
A498 renal = tested on: A498 renal
OVCAR-3 ovarian = tested on: OVCAR-3 ovarian

`CC1(C)CC(=O)C(Cc2ccccc2)(Cc2ccccc2)C(=O)C1` was tested, and the TGI (M14 melanoma) was > 100 µM, the TGI (MALME-3M melanoma) was > 100 µM and the TGI (NCI/ADR-RES ovarian) was > 100 µM. For the same molecule, the TGI (UO-31 renal) was > 100 µM, the TGI (SK-MEL-5 melanoma) was > 100 µM and the TGI (SK-OV-3 ovarian) was > 100 µM. For the same molecule, the TGI (RXF 393 renal) was > 100 µM, the TGI (EKVX NSCLC) was > 100 µM and the TGI (HCC-2998 colon) was > 100 µM. For the same molecule, the TGI (COLO 205 colon) was > 100 µM, the TGI (SNB-75 CNS) was > 100 µM and the TGI (SW-620 colon) was > 100 µM. The TGI (UACC-257 melanoma) was > 100 µM, the TGI (DU-145 prostate) was > 100 µM and the TGI (K-562 leukemia) was > 100 µM. For the same molecule, the TGI (TK-10 renal) was > 100 µM, the TGI (HL-60(TB) leukemia) was > 100 µM and the TGI (HOP-62 NSCLC) was > 100 µM. The TGI (ACHN renal) was > 100 µM, the TGI (KM12 colon) was > 100 µM and the TGI (SF-539 CNS) was > 100 µM. The TGI (HCT-15 colon) was > 100 µM, the TGI (SN12C renal) was > 100 µM and the TGI (T-47D breast) was > 100 µM. The TGI (MOLT-4 leukemia) was > 100 µM, the TGI (NCI-H460 lung) was > 100 µM and the TGI (LOX IMVI melanoma) was > 100 µM. For the same molecule, the TGI (HS 578T breast) was > 100 µM, the TGI (CAKI-1 renal) was > 100 µM and the TGI (UACC-62 melanoma) was > 100 µM. The TGI (NCI-H23 lung) was > 100 µM, the TGI (NCI-H522 lung) was > 100 µM and the TGI (SF-268 CNS) was > 100 µM. The TGI (HT29 colon) was > 100 µM, the TGI (NCI-H226 lung) was > 100 µM and the TGI (OVCAR-8 ovarian) was > 100 µM. The TGI (SK-MEL-2 melanoma) was > 100 µM, the TGI (MCF7 breast) was > 100 µM and the TGI (OVCAR-5 ovarian) was > 100 µM. For the same molecule, the TGI (OVCAR-4 ovarian) was > 100 µM, the TGI (HCT-116 colon) was > 100 µM and the TGI (U251 CNS) was > 100 µM. The TGI (IGROV1 ovarian) was > 100 µM, the TGI (SNB-19 CNS) was > 100 µM and the TGI (CCRF-CEM leukemia) was > 100 µM. For the same molecule, the TGI (MDA-MB-231 breast) was > 100 µM, the TGI (SR leukemia) was > 100 µM and the TGI (786-0 renal) was > 100 µM. The TGI (SK-MEL-28 melanoma) was > 100 µM, the TGI (SF-295 CNS) was > 100 µM and the TGI (MDA-N) was > 100 µM. The TGI (BT-549 breast) was > 100 µM, the TGI (A549 NSCLC) was > 100 µM and the TGI (PC-3 prostate) was > 100 µM.

In the case of `Cc1ccc(S(=O)(=O)NC(CCC(=O)NN)C(=O)NN)cc1` (centres undefined), the TGI (M14 melanoma) is reported as > 100 µM, the TGI (MALME-3M melanoma) is reported as > 100 µM and the TGI (NCI/ADR-RES ovarian) is reported as > 100 µM. The TGI (UO-31 renal) was > 100 µM, the TGI (SK-MEL-5 melanoma) was > 100 µM and the TGI (SK-OV-3 ovarian) was > 100 µM. For the same molecule, the TGI (RXF 393 renal) was > 100 µM, the TGI (EKVX NSCLC) was > 100 µM and the TGI (COLO 205 colon) was > 100 µM. For the same molecule, the TGI (SNB-75 CNS) was > 100 µM, the TGI (SW-620 colon) was > 100 µM and the TGI (UACC-257 melanoma) was > 100 µM. For the same molecule, the TGI (MDA-MB-435) was > 100 µM, the TGI (K-562 leukemia) was > 100 µM and the TGI (TK-10 renal) was > 100 µM. For the same molecule, the TGI (HL-60(TB) leukemia) was > 100 µM, the TGI (HOP-62 NSCLC) was > 100 µM and the TGI (ACHN renal) was > 100 µM. For the same molecule, the TGI (KM12 colon) was > 100 µM, the TGI (SF-539 CNS) was > 100 µM and the TGI (HCT-15 colon) was > 100 µM. For the same molecule, the TGI (T-47D breast) was > 100 µM, the TGI (MOLT-4 leukemia) was > 100 µM and the TGI (NCI-H460 lung) was 21.6 µM. The TGI (LOX IMVI melanoma) was > 100 µM, the TGI (HOP-92 NSCLC) was > 100 µM and the TGI (HS 578T breast) was > 100 µM. The TGI (CAKI-1 renal) was > 100 µM, the TGI (UACC-62 melanoma) was > 100 µM and the TGI (NCI-H23 lung) was > 100 µM. For the same molecule, the TGI (NCI-H522 lung) was > 100 µM, the TGI (SF-268 CNS) was > 100 µM and the TGI (HT29 colon) was > 100 µM. The TGI (NCI-H226 lung) was > 100 µM, the TGI (RPMI-8226 leukemia) was > 100 µM and the TGI (OVCAR-8 ovarian) was > 100 µM. For the same molecule, the TGI (SK-MEL-2 melanoma) was > 100 µM, the TGI (MCF7 breast) was > 100 µM and the TGI (A498 renal) was > 100 µM. For the same molecule, the TGI (OVCAR-5 ovarian) was > 100 µM, the TGI (OVCAR-4 ovarian) was > 100 µM and the TGI (HCT-116 colon) was > 100 µM. For the same molecule, the TGI (U251 CNS) was > 100 µM, the TGI (IGROV1 ovarian) was > 100 µM and the TGI (SNB-19 CNS) was > 100 µM. The TGI (CCRF-CEM leukemia) was > 100 µM, the TGI (MDA-MB-231 breast) was > 100 µM and the TGI (SR leukemia) was > 100 µM. For the same molecule, the TGI (786-0 renal) was > 100 µM, the TGI (OVCAR-3 ovarian) was > 100 µM and the TGI (SF-295 CNS) was > 100 µM. For the same molecule, the TGI (MDA-N) was > 100 µM, the TGI (BT-549 breast) was > 100 µM and the TGI (A549 NSCLC) was > 100 µM. The TGI (PC-3 prostate) was > 100 µM.
